Source: patent US20140228425A1, “INHIBITOR FOR CORNEAL EPITHELIAL CELL DEATH, INHIBITOR CHARACTERIZED BY COMBINING HYALURONIC ACID AND FLAVIN ADENINE DINUCLEOTIDE” (SANTEN PHARMACEUTICAL CO., LTD., priority 2011, published 2014)
Where a name gives a salt, the structure may show the parent alone.

Columns and labels:
[1] = tested on: SV40 immortalized human corneal epithelial cells (HCE-T); experiment: Pharmacological Test 2: treatment before UV-B irradiation (120 mJ/cm^2), cell death inhibition ratio; assay type: cell-based; conditions: for Cell death inhibition ratio: average N=3
Description: A test similar to Pharmacological test 1 was conducted with the irradiation condition of UV-B varied.
After conducting operations similar to those in Pharmacological test 1, the 10% FBS-containing DMEM/F-12 culture medium was replaced by PBS containing 0.05% (w/v) flavin adenine dinucleotide disodium salt, PBS containing 0.05% (w/v) sodium hyaluronate, PBS containing 0.05% (w/v) sodium hyaluronate and 0.05% (w/v) flavin adenine dinucleotide disodium salt, PBS containing 0.3% (w/v) sodium hyaluronate, PBS containing 0.3% (w/v) sodium hyaluronate and 0.05% (w/v) flavin adenine dinucleotide disodium salt, or PBS not containing a test substance (hereinafter, referred to as “0.05% FAD group”, “0.05% HA group”, “0.05% HA/0.05% FAD group”, “0.3% HA group”, “0.3% HA/0.05% FAD group” or “base group”, respectively). Then, corneal epithelial cells were irradiated with UV-B (120 mJ/cm^2) for about 2 minutes, and again operations similar to those in Pharmacological test 1 were conducted. Then, according to the expression 1, the viability was calculated, and further, according to the following expression 2, the cell death inhibition ratio of each group was calculated.
Cell death inhibition ratio (%)=Viability of each group−Viability of base group [Expression 2]

[2] = tested on: SV40 immortalized human corneal epithelial cells; experiment: Pharmacological Test 3: treatment after UV-B irradiation (80 mJ/cm^2), viability of corneal epithelial cells; assay type: cell-based; conditions: treated 60 minutes after UV-B irradiation (80 mJ/cm^2, about 1 minute); 0.1% (w/v) sodium hyaluronate, 0.05% (w/v) flavin adenine dinucleotide disodium salt, or both; FIG. 2
Description: Whether or not the decline of the number of living cells by ultraviolet irradiation is inhibited when corneal epithelial cells are treated with the present agent after ultraviolet (UV-B) irradiation was evaluated.
SV40 immortalized human corneal epithelial cells were inoculated in a 96-well plate (1×10^4 cells/well), and cultured in a 10% FBS-containing DMEM/F-12 culture medium for a day. On the next day, corneal epithelial cells were irradiated with UV-B (80 mJ/cm^2) for about 1 minute. Then the 10% FBS-containing DMEM/F-12 culture medium was replaced by PBS containing 0.1% (w/v) sodium hyaluronate, PBS containing 0.05% (w/v) flavin adenine dinucleotide disodium salt, PBS containing 0.1% (w/v) sodium hyaluronate and 0.05% (w/v) flavin adenine dinucleotide disodium salt, or PBS not containing a test substance, and then cultured at 37° C. for 60 minutes (hereinafter, referred to as “0.1% HA group”, “0.05% FAD group”, “0.1% HA/0.05% FAD group” or “base group”, respectively). Then, after replacing the culture medium of each group by a 10% FBS-containing DMEM/F-12 culture medium, the cells were cultured at 37° C. for 24 hours, and then the number of living cells was determined by using Cell Titer 96 (registered trade name) AQueous One Solution Cell Proliferation Assay, and the viability was calculated according to the following expression 3. […]

[3] = tested on: SV40 immortalized human corneal epithelial cells; experiment: Pharmacological Test 4: treatment before exposure to dryness, viability of corneal epithelial cells; assay type: cell-based; conditions: treated 60 minutes before exposure to dryness for 15 minutes; 0.1% HA, 0.05% FAD or 0.1% HA/0.05% FAD in D-MEM/F12; FIG. 3
Description: Whether or not the decline of the number of living cells by dryness is inhibited when corneal epithelial cells are treated with the present agent before exposure to dryness was evaluated.
SV40 immortalized human corneal epithelial cells were inoculated in a 96-well plate (1×10^4 cells/well), and cultured in a 10% FBS-containing DMEM/F-12 culture medium for a day. On the next day, the culture medium was replaced by a D-MEM/F12 culture medium containing 0.1% (w/v) sodium hyaluronate, a D-MEM/F12 culture medium containing 0.05% (w/v) flavin adenine dinucleotide disodium salt, a D-MEM/F12 culture medium containing 0.1% (w/v) sodium hyaluronate and 0.05% (w/v) flavin adenine dinucleotide disodium salt, or a D-MEM/F12 culture medium not containing a test substance, and then cells were cultured at 37° C. for 60 minutes (hereinafter, referred to as “0.1% HA group”, “0.05% FAD group”, “0.1% HA/0.05% FAD group” or “base group”, respectively). After culturing, the culture medium of each group was removed, and then cells were exposed to dryness for 15 minutes. After exposure to dryness, the number of living cells was determined by using Cell Titer 96 (registered trade name) AQueous One Solution Cell Proliferation Assay, and the viability was calculated according to the following expression 4. […]

[4] = tested on: corneal epithelial cells; conditions: Non-Patent Document 1; cited from earlier work
[5] = tested on: corneal epithelial cells; conditions: Non-Patent Document 3; cited from earlier work
[6] = Patent Document 1; cited from earlier work
[7] = single substance 0.05% (w/v) in PBS before UV-B (120 mJ/cm^2, about 2 minutes)

Compound	Cell death inhibition ratio [1, 7]	inhibition of corneal epithelial cell death (in words) [2]	action of inhibiting corneal epithelial cell death (in words) [3]	further results
sodium hyaluronate [HA]	−0.17%	little observed	an action of inhibiting corneal epithelial cell death was observed	Cell death inhibition ratio ([1]; single substance 0.3% (w/v) in PBS before UV-B (120 mJ/cm^2, about 2 minutes)): 4.17%; inhibition of corneal epithelial cell death by UV-B irradiation (in words) ([1]; treatment before UV-B irradiation (120 mJ/cm^2, about 2 minutes)): little inhibit
hyaluronic acid or a salt thereof [hyaluronic acid or the like]	–	–	–	Caspase-3/7 activation by UV-B irradiation [4]: inhibits; increase in production of active oxygen by corneal epithelial cells by UV-B irradiation [4]: inhibits; cell death of corneal epithelial cells induced by dryness [5]: does not inhibit
Cc1cc2nc3c(=O)[nH]c(=O)nc-3n(C[C@H](O)[C@H](O)[C@H](O)COP(=O)(O)OP(=O)(O)OC[C@H]3O[C@@H](n4cnc5c(N)ncnc54)C(O)C3O)c2cc1C (stereo partly drawn) [FAD or the like, flavin adenine dinucleotide (FAD) or a salt thereof]	–	–	–	lacrimal secretagogue action [6]: has a lacrimal secretagogue action
Cc1cc2nc3c(=O)[nH]c(=O)nc-3n(C[C@H](O)[C@H](O)[C@H](O)COP(=O)([O-])OP(=O)([O-])OC[C@H]3O[C@@H](n4cnc5c(N)ncnc54)[C@H](O)[C@@H]3O)c2cc1C.[Na+].[Na+] [FAD, flavin adenine dinucleotide disodium salt]	48.78%	little observed	the action was not observed	–
